# Laboratory results as given in patent US20020035738A1, “Plant protection method” (priority 1996, published 2002).
# Key:
# [1] = system: pBg12-GUS-tNOS (β-1.3-glucanase PR-2 type gene promoter); assay: β-glucuronidase activity in pBg12-GUS-tNOS Arabidopsis plants upon chemical treatment; format: in vivo
# [2] = system: Alterniaria alternata; settings: cited from earlier work
# [3] = system: Botrvtis cinerea; settings: cited from earlier work
# [4] = system: pPDF1.2-GUS-tNOS reporter gene; assay: β-glucuronidase activity in four-week-old pPDF1.2-GUS-tNOS Arabidopsis plants upon chemical treatment; format: in vivo
# [5] = system: plant defensin gene expression (PDF1.2); assay: Induction of plant defensins in Arabidopsis leaves upon chemical treatments (RNA gel blot, ELISA); format: in vivo
# [6] = system: pPDF1.2-GUS-tNOS transgene; assay: β-glucuronidase activity in seedlings of pPDF1.2-GUS-tNOS Arabidopsis lines germinated on jasmonic acid; format: in vivo, Arabidopsis thaliana ecotype C24; settings: 10 μM jasmonic acid
# Source text: The β-glucuronidase activity was normalized to the total protein content in each sample, as determined by the method of Bradford (1976) using bovine serum albumin as a […].
# [7] = system: pPDF1.2-GUS-tNOS reporter gene; assay: β-glucuronidase activity in pPDF1.2-GUS-tNOS tobacco plants upon chemical treatment; format: in vivo, tobacco (cv. Xanthi-nc); settings: 8-week-old tobacco, treated leaves 48 h after treatment; SA S mM, MeJA 50 μM, paraquat 25 μgM
# [8] = system: tobacco PR-1 gene; assay: RNA gel blot analysis of tobacco PR-1 gene activation; format: in vivo; settings: tobacco plants treated in the same way; not shown
# [9] = system: A. brassicicola; format: cell-based, Alternaria brassicicola; settings: FIG. 3D
# [10] = treated leaves, 48 h, JA 500 μM, MeJA 50 μM, SA 5 mM, INA 1 mg/ml, BTH 300 μM, paraquat 25 μM, ethylene 25 ppm
# [11] = treated leaves, 48 hours, JA 500 μM, MeJA 50 μM, SA 5 mM, INA 1 mg/ml, BTH 300 μM, paraquat 25 μM, ethylene 25 ppm
# [12] = […], SA 5 mM, INA 1 mg/mL, paraquat 25 μM, rose bengal 20 mM, methyl jasmonate 45 μM in 0.1% ethanol, ethylene 20 ppm
compound,measurement,setting,value
"CSC(=O)c1cccc2nnsc12 [BTH, 1,2,3-benzothiadiazole-7-carbothioic acid S-methylester]",β-glucuronidase activity in pBg12-GUS-tNOS plants,[1]; [10],markedly increased
same,protection of tobacco plants against infection by Alternaria alternata,[2],failed to protect
same,protection of tobacco plants against infection by Botrytis cinerea,[3],failed to protect
same,induction of the pPDF1.2-GUS-tNOS reporter gene (β-glucuronidase activity),[4]; [11],without effect
"O=C(O)c1cc(Cl)nc(Cl)c1 [INA, 2,6-dichloroisonicotinic acid]",β-glucuronidase activity in pBg12-GUS-tNOS plants,[1]; [10],markedly increased
same,"plant defensin gene expression (RNA blot analysis, ELISA)",[5]; [12],no induction
same,induction of the pPDF1.2-GUS-tNOS reporter gene (β-glucuronidase activity),[4]; [11],without effect
C=C [ethylene],β-glucuronidase activity in pBg12-GUS-tNOS plants,[1]; in vivo,"neither JA, MeJA, ethylene nor paraquat had any effect"
same,PDF1.2 accumulation,[5]; in vivo,no induced PDF1.2 accumulation
same,"plant defensin gene expression (RNA blot analysis, ELISA)",[5]; in vivo,significantly increased
same,induction of the pPDF1.2-GUS-tNOS reporter gene (β-glucuronidase activity),[4]; in vivo,without effect
same,"β-glucuronidase activity, single and combined treatments (synergy)",[4]; in vivo,did not cause increased
CC/C=C\C[C@H]1C(=O)CC[C@@H]1CC(=O)O [jasmonic acid],β-glucuronidase activity in pBg12-GUS-tNOS plants,[1]; [10],"neither JA, MeJA, ethylene nor paraquat had any effect"
same,increase of β-glucuronidase activity in jasmonate treated versus untreated seedlings,[6]; all six lines tested,9 to 25 fold
same,"β-glucuronidase activity, JA-treated","[6]; transgenic line 3, 10-day-old seedlings",2895 pmoles 4-methylumbelliferone r
same,"β-glucuronidase activity, JA-treated","[6]; transgenic line 4, 10-day-old seedlings",978 pmoles 4-methylumbelliferone r
same,"β-glucuronidase activity, JA-treated","[6]; transgenic line 5, 10-day-old seedlings",2676 pmoles 4-methylumbelliferone r
same,"β-glucuronidase activity, JA-treated","[6]; transgenic line 6, 10-day-old seedlings",2166 pmoles 4-methylumbelliferone r
same,"β-glucuronidase activity, JA-treated","[6]; transgenic line 7, 10-day-old seedlings",203 pmoles 4-methylumbelliferone r
same,"β-glucuronidase activity, JA-treated","[6]; transgenic line 19, 10-day-old seedlings",202 pmoles 4-methylumbelliferone r
same,induction of the pPDF1.2-GUS-tNOS reporter gene (β-glucuronidase activity),[4]; [11],induced
CC/C=C\CC1C(=O)CCC1CC(=O)OC (stereo not drawn) [methyl jasmonate],β-glucuronidase activity in pBg12-GUS-tNOS plants,[1]; [10],"neither JA, MeJA, ethylene nor paraquat had any effect"
same,"plant defensin gene expression (RNA blot analysis, ELISA)",[5]; [12],significantly increased
same,PDF1.2 accumulation,"[5]; sterile plants grown on an agar medium, ethylene alone 25 ppm, results not shown",still induced PDF1.2 accumulation
same,"β-glucuronidase activity, single and combined treatments (synergy)","[4]; methyl jasmonate 0.5 μM, ethylene 25 ppm, ethephon 333 μM, FIG. 19",did not cause increased
same,induction of the pPDF1.2-GUS-tNOS reporter gene (β-glucuronidase activity),[4]; [11],induced
C[n+]1ccc(-c2cc[n+](C)cc2)cc1 [paraquat],β-glucuronidase activity in pBg12-GUS-tNOS plants,[1]; [10],"neither JA, MeJA, ethylene nor paraquat had any effect"
same,"plant defensin gene expression (RNA blot analysis, ELISA)",[5]; [12],strongly induced
same,induction of the pPDF1.2-GUS-tNOS reporter gene (β-glucuronidase activity),[4]; [11],induced
O=C([O-])c1c(Cl)c(Cl)c(Cl)c(Cl)c1-c1c2cc(I)c(=O)c(I)c-2oc2c(I)c([O-])c(I)cc12.[Na+].[Na+] [rose bengal],"plant defensin gene expression (RNA blot analysis, ELISA)",[5]; [12],strongly induced
O=C(O)c1ccccc1O [salicylic acid],β-glucuronidase activity in pBg12-GUS-tNOS plants,[1]; [10],markedly increased
same,increase in β-glucuronidase activity,[7],2 fold
same,activation of the tobacco PR-1 gene (RNA gel blot),[8],induced only by salicylic acid
same,"plant defensin gene expression (RNA blot analysis, ELISA)",[5]; [12],no induction
same,induction of the pPDF1.2-GUS-tNOS reporter gene (β-glucuronidase activity),[4]; [11],without effect
"Rs-AFP1: a known radish plant defensin (QKLCERPSGTWSGVCGNNNACKNQCINLEKARHGSCNYVFPAHKCICYFPC; UniProt P69241 30-80, looked up)",character of the growth inhibition (hyphal morphology),[9],hyphal hyperbranching and tip swelling
